Test results from ChEMBL document CHEMBL1909046, “DrugMatrix in vitro pharmacology data”.

Experiments:
Estrogen receptor = molecular target: T1, Estrogen receptor (Homo sapiens, UniProt P03372); assay: biochemical
T1 sequence (P03372 whole entry): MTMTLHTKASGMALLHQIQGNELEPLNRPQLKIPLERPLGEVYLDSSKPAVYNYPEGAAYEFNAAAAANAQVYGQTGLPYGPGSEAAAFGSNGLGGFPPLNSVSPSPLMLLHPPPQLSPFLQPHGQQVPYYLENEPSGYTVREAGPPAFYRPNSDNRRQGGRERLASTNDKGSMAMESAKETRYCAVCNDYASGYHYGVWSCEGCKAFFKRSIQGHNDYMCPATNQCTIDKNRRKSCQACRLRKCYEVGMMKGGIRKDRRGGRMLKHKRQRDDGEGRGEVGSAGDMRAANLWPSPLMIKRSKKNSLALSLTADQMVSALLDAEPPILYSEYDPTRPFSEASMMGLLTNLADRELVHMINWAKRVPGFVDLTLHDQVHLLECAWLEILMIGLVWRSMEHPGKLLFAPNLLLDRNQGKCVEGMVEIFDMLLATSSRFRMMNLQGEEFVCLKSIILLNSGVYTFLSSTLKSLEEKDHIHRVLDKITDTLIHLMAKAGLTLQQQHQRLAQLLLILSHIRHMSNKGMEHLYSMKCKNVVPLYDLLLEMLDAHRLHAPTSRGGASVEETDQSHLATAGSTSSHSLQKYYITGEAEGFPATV

Cytochrome P450 3A4 = Cytochrome P450 3A4 (Homo sapiens, UniProt P08684)
Cytochrome P450 3A4, sequence (P08684 whole entry): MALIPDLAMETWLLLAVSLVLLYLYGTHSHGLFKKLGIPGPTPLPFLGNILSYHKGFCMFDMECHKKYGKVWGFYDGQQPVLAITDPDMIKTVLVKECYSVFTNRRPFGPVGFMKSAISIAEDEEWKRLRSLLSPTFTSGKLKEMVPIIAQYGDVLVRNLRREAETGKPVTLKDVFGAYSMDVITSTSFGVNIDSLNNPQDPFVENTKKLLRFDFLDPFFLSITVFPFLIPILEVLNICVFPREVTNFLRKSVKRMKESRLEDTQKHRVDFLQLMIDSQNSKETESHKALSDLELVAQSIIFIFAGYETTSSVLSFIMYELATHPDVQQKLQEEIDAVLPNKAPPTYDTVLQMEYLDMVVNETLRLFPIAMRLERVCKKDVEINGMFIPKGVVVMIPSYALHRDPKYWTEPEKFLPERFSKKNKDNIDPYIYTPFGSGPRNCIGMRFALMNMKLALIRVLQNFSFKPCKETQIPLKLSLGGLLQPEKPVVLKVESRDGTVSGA

C[C@]12CC[C@@H]3c4ccc(OC(=O)c5ccccc5)cc4CC[C@H]3[C@@H]1CC[C@@H]2O [ESTRADIOL BENZOATE]
IC50 (Estrogen receptor): 65 nM
Ki (Estrogen receptor): 18 nM

C#C[C@]1(O)CC[C@H]2[C@@H]3CCc4cc(OC)ccc4[C@H]3CC[C@@]21C [MESTRANOL]
IC50 (Estrogen receptor): 18 nM
Ki (Estrogen receptor): 5.22 nM

CC(C)(C(=O)c1cccnc1)c1cccnc1 [METYRAPONE]
IC50 (Cytochrome P450 3A4): 800 nM
